From USRE36784E, “Chemoprotective isothiocyanates” (The Johns Hopkins University, priority 1997, dated 2000)

Experiments:
[1] = tested on: female CD-1 mice; assay: Toxicity in mice dosed by gavage; format: in vivo, mouse (female CD-1); details: compared with sulforaphane and erucin
Description: The sulfone (erysolin) was more toxic, but even 5-μmol daily doses for 5 days elevated the specific activities of these enzymes in some tissues examined. We therefore conclude that sulforaphane and its analogues not only induce QR in Hepa 1c1c7 murine hepatoma cells but also induce both QR and glutathione transferase activities in a number of murine organs.

[2] = tested on: quinone reductase (QR) in Hepa 1c1c7 murine hepatoma cells; assay: Induction of QR (inducer potency, CD value) in Hepa 1c1c7 murine hepatoma cells; format: cell-based
Description: Assay of Inducer Potency. Inducer activity was measured in Hepa 1c1c7 murine hepatoma cells grown in 96-well microtiter plates (Prochaska and Santamaria, Anal. Biochem. 169:328-336 (1988); Prochaska et al., Proc. Natl. Acad. Sciences USA 89:2394-2398 (1992)). QR activity (based on the formation of the blue-brown reduced tetrazolium dye) was measured with an optical microtiter plate scanner in cell lysates prepared in one plate, and the cell density was determined in the second plate by staining with crystal violet. Quantitative information on specific activity of QR, the inducer potency, and the cytotoxicity of the extract or compound tested is obtained by computer analysis of the absorbances. One unit of inducer activity is defined as the amount that when added to a single microtiter well doubled the QR specific activity. The CD value is the concentration of a compound required to double the quinone reductase specific activity in Hepa 1c1c7 murine hepatoma cells.
Each of the analogs of sulforaphane was tested for the ability to induce QR in murine hepatoma cells by the assay described in Example 1.
Analogs were synthesized and tested in the hepatoma cell assay described in Example 1.

[3] = tested on: QR (quinone reductase); assay: Induction of QR in mouse tissues after gavage; format: in vivo, mouse (female CD-1)
Description: (§1) The compounds were administered to 6week-old female CD1 mice (4 or 5 mice
(§2) per group) by gavage in indicated single daily doses in 0.1 ml of Emulpho
(§3) EL 620P (GAF. Linden, NJ) for 5 days. Cytosols were prepared from the
(§4) tissues 24 hr after the last treatment and assayed for enzyme activities
(§5) (glutathione Stransferase was measured with 1chloro-2,4-dinitrobenzene).
(§6) The specific activities (nmol · min^-1 · mg^-1
(§7) ± SEM) of organs of vehicletreated #control mice were as follows.
(§8) 54 ± 5.8: GST. 439 ± 34. Data are presented as mean ± SEM.

[4] = tested on: glutathione S-transferase (GST); assay: Induction of glutathione S-transferase (GST) in mouse tissues after gavage; format: in vivo, mouse (female CD-1)
Description: as §1, §2, §3, §4, §5, §6, §7, §8

[5] = 5 μmol per mouse per day, gavage, 5 days, forestomach
[6] = 5 μmol per mouse per day, gavage, 5 days, glandular stomach
[7] = 5 μmol per mouse per day, gavage, 5 days, liver
[8] = 5 μmol per mouse per day, gavage, 5 days, lung
[9] = 5 μmol per mouse per day, gavage, 5 days, proximal small intestine
[10] = 5-μmol daily doses for 5 days, some tissues

## CS(=O)(=O)CCCCN=C=S [Erysolin]
[1]
  toxicity in mice: more toxic
[2]; Mus musculus, Hepa-1c1c7, read-out: CD value, Table 1, QR induction, Hepa 1c1c7 cells
  EC (2-fold QR specific activity): 0.82 µM
[2]; comparison in words, Table 1
  relative potency as inducers of QR: equipotent
[2]; in cell culture
  activity as inducers compared with sulforaphane and sulforaphene: less active
[3]; [5]
  Ratio of specific activities (treated/control), QR, Forestomach: 1.05 ± 0.21
[3]; [6]
  Ratio of specific activities (treated/control), QR, Glandular stomach: 1.57 ± 0.08
[3]; [7]
  Ratio of specific activities (treated/control), QR, Liver: 1.62 ± 0.09
[3]; [8]
  Ratio of specific activities (treated/control), QR, Lung: 1.00 ± 0.11
[3]; [9]
  Ratio of specific activities (treated/control), QR, Proximal small intestine: 1.22 ± 0.20
[3]; [10]
  elevation of QR specific activity: elevated
[4]; [5]
  Ratio of specific activities (treated/control), GST, Forestomach: 1.45 ± 0.15
[4]; [6]
  Ratio of specific activities (treated/control), GST, Glandular stomach: 1.94
[4]; [7]
  Ratio of specific activities (treated/control), GST, Liver: 1.08 ± 0.11
[4]; [8]
  Ratio of specific activities (treated/control), GST, Lung: 1.09
[4]; [9]
  Ratio of specific activities (treated/control), GST, Proximal small intestine: 0.87
[4]; [10]
  elevation of glutathione transferase specific activity: elevated
